Patent US11168087B2, “Substituted imidazo[1,2-b]pyridazines, substituted imidazo[1,5-b]pyridazines, related compounds, and their use in the treatment of medical disorders” (BIAL—R&D Investments, S.A., priority 2016, dated 2021)

Target: T1, glucocerebrosidase (Gcase) (Homo sapiens, UniProt P04062)
T1 construct: micellar solution containing 10 nM GCase and 100 nM saposin C
T1 sequence (P04062 40-536): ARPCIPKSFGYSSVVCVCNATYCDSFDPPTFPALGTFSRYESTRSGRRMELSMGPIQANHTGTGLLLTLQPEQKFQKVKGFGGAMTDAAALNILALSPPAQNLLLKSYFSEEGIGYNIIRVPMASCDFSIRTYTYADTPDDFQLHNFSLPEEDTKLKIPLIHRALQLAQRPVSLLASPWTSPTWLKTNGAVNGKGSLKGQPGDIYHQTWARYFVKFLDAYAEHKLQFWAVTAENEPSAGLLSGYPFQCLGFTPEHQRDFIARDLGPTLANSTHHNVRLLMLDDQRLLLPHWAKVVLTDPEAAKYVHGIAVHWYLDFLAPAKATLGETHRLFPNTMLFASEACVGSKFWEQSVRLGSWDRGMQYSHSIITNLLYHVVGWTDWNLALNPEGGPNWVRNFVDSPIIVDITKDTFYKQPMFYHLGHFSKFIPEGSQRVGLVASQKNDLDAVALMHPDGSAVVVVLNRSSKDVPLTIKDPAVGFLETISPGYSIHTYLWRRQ
Experiment: Glucocerebrosidase (Gcase) activation assay, 4-methylumbelliferyl-beta-D-glucopyranoside substrate, with saposin C
Assay type: biochemical
Settings: 0.25 h; for activation at 0.1 µM: read-out: Percent Gcase Activation 0.1 μM Test Compound; for activation at 1 µM: read-out: Percent Gcase Activation 1 μM Test Compound
Protocol: The ability of exemplary compounds to activate glucocerebrosidase (Gcase) was measured.
A 484 μL aliquot of a 1.0 mg/mL solution of phosphatidylserine (PS) (Sigma P7769) in chloroform was evaporated under a stream of nitrogen for 1 hour. The lipid film was dissolved over 4 minutes of vigorous vortexing in 40 mL of 176 mM K2HPO4/50 mM citric acid (pH 4.7) containing 7.5 μL of triton X-100, resulting in a mixed micellar preparation with a composition of 0.32 mM triton and 0.37 mol % PS. 4-Methylumbelliferyl-beta-D-glucopyranoside (ACROS-337025000) was dissolved in the micellar solution to a final concentration of 2 mM for use as the reaction substrate.
Test compounds were diluted to the desired concentrations with dimethylsulfoxide (DMSO) from 10 mM stocks, and 0.41 μL of the DMSO compound mixture was added to 100 μL of micellar solution containing 10 nM GCase and 100 nM saposin C (Enzo ALX-201-262-C050). Pre-incubation was allowed to occur for 30 minutes at room temperature, after which the reaction was initiated by combining 25 μL of substrate solution with 25 μL of compound/GCase/saposin mixture. The reaction proceeded for 15 minutes at room temperature and was stopped by adding 150 μL of 1M glycine, pH 12.5. The endpoint of the reaction was monitored by measuring fluorescence intensity (excitation: 365 nm; emission: 440 nm) on a SpectraMax i3 instrument (Molecular Devices). Test compounds were screened at 1.0 and 0.1 μM final concentration, and subsequent 8-point dose response curves were obtained using 3-fold dilutions from a maximum final concentration of 5 μM.
The symbol “+” indicates less than 5% Gcase activation; the symbol “++” indicates Gcase activation in the range of 5% up to 20%; and the symbol “+++” indicates Gcase activation greater than 20%.

Structure (SMILES)	activation at 0.1 µM	activation at 1 µM
Cc1cc(C)c2occ(C(=O)Nc3ccc4c(c3)CCC4)c2n1 [N-(2,3-Dihydro-1H-inden-5-yl)-5,7-dimethylfuro[3,2-b]pyridine-3-carboxamide]	5 to 20%	> 20%
Cc1cc(-c2cccc3ocnc23)nc2c(C(=O)NC(C3CC3)C(F)(F)F)nsc12 (centres unmarked)	< 5%	5 to 20%
Cc1cc(-c2cccc(F)c2)nn2c(C(=O)NC(C)(C)C3CC3)cnc12	> 20%	> 20%
CCC(NC(=O)c1coc2c(C)cc(C)nc12)c1ccccc1 (centres unmarked) [5,7-Dimethyl-N-(1-phenylpropyl)furo[3,2-b]pyridine-3-carboxamide]	> 20%	> 20%
Cc1cc(-c2cncc(F)c2)nn2c(C(=O)NC(C3CC3)C(F)(F)F)cnc12 (centres unmarked)	5 to 20%	> 20%
COc1cccc(-c2cc(C)c3ncc(C(=O)NC(C4CC4)C4CC4)n3n2)c1	> 20%	> 20%
Cc1cc(-c2ccc3ncn(C)c3c2)nn2c(C(=O)N[C@H](C3CC3)C(F)(F)F)cnc12 [(R)—N-(1-Cyclopropyl-2,2,2-trifluoroethyl)-8-methyl-6-(1-methyl-1H-benzo[d]imidazol-6-yl)imidazo[1,2-b]pyridazine-3-carboxamide]	5 to 20%	> 20%
Cc1cc(-c2ccc(F)cc2C#N)nn2c(C(=O)N[C@H](C)C(F)(F)F)cnc12	< 5%	5 to 20%
Cc1cc(-c2sccc2C#N)nn2c(C(=O)N[C@@H](C3CC3)C(F)(F)F)cnc12	> 20%	> 20%
CCC(NC(=O)c1nsc2c(C)cc(C)nc12)c1ccccc1 (centres unmarked) [5,7-Dimethyl-N-(1-phenylpropyl)isothiazolo[4,5-b]pyridine-3-carboxamide]	5 to 20%	> 20%
Cc1cc(-c2ccc3c(c2)ncn3C)nn2c(C(=O)N[C@H](C3CC3)C(F)(F)F)cnc12	5 to 20%	> 20%
Cc1cc(-c2cncc(Cl)c2)nn2c(C(=O)N[C@H](C3CC3)C(F)(F)F)cnc12	> 20%	> 20%
Cc1cc(C)c2onc(C(=O)NC(C)(C)C3CC3)c2n1 [N-(2-Cyclopropylpropan-2-yl)-5,7-dimethylisoxazolo[4,5-b]pyridine-3-carboxamide]	5 to 20%	> 20%
Cc1cc(-c2ccc3ocnc3c2)nn2c(C(=O)NC(C3CC3)C(F)(F)F)cnc12 (centres unmarked)	> 20%	> 20%
Cc1cc(-c2c(F)cccc2C#N)nn2c(C(=O)N[C@@H](C)C(F)(F)F)cnc12 [(S)-6-(2-Cyano-6-fluorophenyl)-8-methyl-N-(1,1,1-trifluoropropan-2-yl)imidazo[1,2-b]pyridazine-3-carboxamide]	5 to 20%	> 20%
Cc1cc(-c2ccc(F)cc2)nn2c(C(=O)N[C@@H](C)C3CC3)ncc12	5 to 20%	> 20%
Cc1cc(-c2ccc(F)cc2C#N)nn2c(C(=O)N[C@@H](C3CC3)C(F)(F)F)cnc12	> 20%	> 20%
Cc1cc(C)c2scc(C(=O)NC(C3CC3)C(F)(F)F)c2n1 (centres unmarked)	> 20%	> 20%
Cc1cc(-c2cccc(F)c2)nn2c(C(=O)N[C@@H](C3CC3)C(F)(F)F)ncc12 [(S)—N-(1-Cyclopropyl-2,2,2-trifluoroethyl)-2-(3-fluorophenyl)-4-methylimidazo[1,5-b]pyridazine-7-carboxamide]	> 20%	> 20%
Cc1cc(-c2ccc(F)cc2)nn2c(C(=O)N[C@@H](C)C3CC3)cnc12	5 to 20%	> 20%
CCC(NC(=O)c1cnc2c(C)cc(C)nn12)c1ccccc1 (centres unmarked)	< 5%	> 20%
Cc1cc(N2CCN(C(C)C)C2=O)nn2c(C(=O)NC(C3CC3)C(F)(F)F)cnc12 (centres unmarked)	5 to 20%	> 20%
Cc1cc(-c2cccnc2F)nn2c(C(=O)NC(C3CC3)C(F)(F)F)cnc12 (centres unmarked)	5 to 20%	> 20%

Structure (SMILES)	activation at 0.1 µM	activation at 1 µM
Cc1cc(-c2cccc(F)c2)nn2c(C(=O)N[C@H](C3CC3)C(F)(F)F)ncc12 [(R)—N-(1-Cyclopropyl-2,2,2-trifluoroethyl)-2-(3-fluorophenyl)-4-methylimidazo[1,5-b]pyridazine-7-carboxamide]	> 20%	> 20%
Cc1cc(-c2ccc(C#N)o2)nn2c(C(=O)N[C@H](C3CC3)C(F)(F)F)cnc12	> 20%	> 20%
Cc1cc(C)c2snc(C(=O)Nc3ccc4c(c3)CCC4)c2n1 [N-(2,3-Dihydro-1H-inden-5-yl)-5,7-dimethylisothiazolo[4,5-b]pyridine-3-carboxamide]	> 20%	> 20%
Cc1cc(C)c2ncc(C(=O)NC3CCCc4ccccc43)n2n1 (centres unmarked)	5 to 20%	> 20%
Cc1cc(-c2sccc2C#N)nn2c(C(=O)N[C@H](C3CC3)C(F)(F)F)cnc12	> 20%	> 20%
Cc1cc(-c2cccnc2)nn2c(C(=O)NC(C3CC3)C(F)(F)F)cnc12 (centres unmarked)	< 5%	> 20%
O=C(Nc1ccc2c(c1)CCC2)c1cnc2ccc(Cl)nn12	< 5%	5 to 20%
Cc1cc(-c2ccc(F)cc2C#N)nn2c(C(=O)N[C@@H](C)C3CC3)cnc12	5 to 20%	> 20%
CCCCCCOC1CCC(NC(=O)c2cnc3cc(C)c(Cl)nn23)CC1 (centres unmarked)	< 5%	< 5%
CCCCCO[C@H]1CC[C@H](NC(=O)c2nsc3c(C)cc(C)nc23)CC1 [5,7-Dimethyl-N-((1R,4R)-4-(pentyloxy)cyclohexyl)isothiazolo[4,5-b]pyridine-3-carboxamide]	> 20%	> 20%
Cc1cc(-c2ccc(F)cc2C#N)nn2c(C(=O)NC(C3CC3)C(F)(F)F)cnc12 (centres unmarked)	5 to 20%	> 20%
Cc1cc(-c2ccc3ncn(C)c3c2)nn2c(C(=O)N[C@@H](C3CC3)C(F)(F)F)cnc12 [(S)—N-(1-Cyclopropyl-2,2,2-trifluoroethyl)-8-methyl-6-(1-methyl-1H-benzo[d]imidazol-6-yl)imidazo[1,2-b]pyridazine-3-carboxamide]	5 to 20%	> 20%
Cc1cc(-c2ccc(F)cc2)nn2c(C(=O)NC(C)(C)C3CC3)ncc12	> 20%	> 20%
Cc1cc(-c2ccc3ocnc3c2)nn2c(C(=O)N[C@@H](C)C(F)(F)F)cnc12	> 20%	> 20%
Cc1cncc(-c2cc(C)c3ncc(C(=O)N[C@H](C4CC4)C(F)(F)F)n3n2)c1	5 to 20%	> 20%
Cc1cc(C)c2scc(C(=O)NC(C)(C)C3CC3)c2n1	> 20%	> 20%
Cc1cc(C)c2ncc(C(=O)Nc3ccc4c(c3)CCC4)n2n1	5 to 20%	> 20%
Cc1cc(-c2cc(C)c3ncc(C(=O)N[C@@H](C4CC4)C(F)(F)F)n3n2)sn1	5 to 20%	> 20%
CCCCCCOC1CCC(NC(=O)c2cnc3c(C)cc(Cl)nn23)CC1 (centres unmarked)	5 to 20%	> 20%
Cc1cc(-c2cccnc2)nc2c(C(=O)NC(C3CC3)C(F)(F)F)nsc12 (centres unmarked)	< 5%	5 to 20%
C#CC(C)(C)NC(=O)c1cnc2c(C)cc(-c3ccns3)nn12	< 5%	> 20%
CCC(NC(=O)c1ncc2c(C)cc(C)nn12)c1ccccc1 (centres unmarked)	< 5%	> 20%
Cc1cc(C)c2onc(C(=O)NC3CCCc4ccccc43)c2n1 (centres unmarked) [5,7-Dimethyl-N-(1,2,3,4-tetrahydronaphthalen-1-yl)isoxazolo[4,5-b]pyridine-3-carboxamide]	5 to 20%	> 20%
